In PMC11864979, “First-in-class ultralong-target-residence-time p38α inhibitors as a mitosis-targeted therapy for colorectal cancer” (Nature Cancer, 2025):
Values joined by “and” are separate entries in the source; they are usually repeats but may differ in a detail not shown here. Equal values may be shown once.

Experiments:
BAP organoids = assay: cell viability in BAP organoids; format: cell-based, mouse; settings: for therapeutic effect in BAP organoids (in words): 4 days
Protocol: A total of 1,000–2,000 single cells were plated per well in white 96-well plates (Greiner) in culture medium containing 10% GFR Matrigel or Cultrex BME. The treatment with doxycycline (5 µg ml^−1), pharmacological inhibitors or corresponding volumes of DMSO was started 24 h after plating. Doxycycline was obtained from Sigma-Aldrich. […] Results were normalized to vehicle (DMSO) or to shNC. For cell-doubling assays, the cell number was quantified at the corresponding time points using Guava EasyCyte flow cytometer (Luminex, CytoSoft v5.2 software).

PDO5 = assay: cell viability in patient-derived CRC organoids PDO5; format: cell-based, human; settings: Fig. 3f, replicates
Protocol: (§1) For in vitro treatment studies, organoids were mechanically dissociated and digested using TrypLE supplemented with 100 µg ml^−1 DNaseI and 10.5 µM Y-27632 dihydrochloride (Invitrogen) at 37 °C. A total of 1,000–2,000 single cells were plated per well in white 96-well plates (Greiner) in culture medium containing 10% GFR Matrigel or Cultrex BME. The treatment with doxycycline (5 µg ml^−1), pharmacological inhibitors or corresponding volumes of DMSO was started 24 h after plating. Doxycycline was obtained from Sigma-Aldrich. […] Cell viability was measured by means of CellTiter-Glo 3D or CellTiter-Glo 2.0 reagent (Promega) according to the manufacturers’ instructions and the Infinite M Plex reader (Tecan, i-control version 3.9.1 software). Results were normalized to vehicle (DMSO) or to shNC. For cell-doubling assays, the cell number was quantified at the corresponding time points using Guava EasyCyte flow cytometer (Luminex, CytoSoft v5.2 software).

[1] = system: KAP-shMapk14 and KAP-shNC organoids; assay: cell viability in KAP-shMapk14 and KAP-shNC organoids treated with doxycycline and 2015; format: cell-based, mouse; design: Cell viability (%): concentration or dose not given beside the values; settings: for Cell viability (%): individual replicates, relative to shNC + DMSO
Protocol: To produce retroviral particles, Phoenix packaging cells were transfected with retroviral DNA (pRT3GEPIR and pR-BRAF^V600E-Puro) through calcium phosphate transfection. The viral supernatant, supplemented with polybrene (5 µg ml^−1) was applied on cells or dissociated organoids and the infected cultures were selected with puromycin (3 µg ml^−1). Expression of shRNAs and GFP was induced with 5 µg ml^−1 doxycycline (Sigma).
as §1

KAP^2D cells [2] = assay: western blot analysis of p38α signaling in KAP^2D cells; format: cell-based, mouse; settings: 1 µM, 1 day
Protocol: Proteins were extracted from cells and organoids using radioimmunoprecipitation assay extraction buffer (50 mM Tris pH 8.0, 150 mM NaCl, 1% Triton X-100, 0.5% sodium deoxycholate, 0.1% SDS, 5 mM EDTA and 1 mM EGTA) supplemented with protease and phosphatase inhibitors (cOmplete and PhosSTOP, Roche). Protein concentrations were measured using the DC (detergent compatible) Protein Assay (Bio-Rad). Briefly, 20–30 µg of protein was separated by SDS–PAGE and transferred onto PVDF membranes (Immobilon-P, Millipore). Membranes were blocked in 5% BSA and Tris-buffered saline (TBS)–Tween buffer and then incubated with primary antibodies overnight at 4 °C and with horseradish peroxidase-conjugated secondary antibodies for 1 h at room temperature. All used antibodies and dilutions are listed in the Nature Portfolio Reporting Summary. The blots were visualized using the ChemiDoc MP Imaging System (BIO-RAD) and ImageLab version 5.2.1 software. Vinculin and β-actin were used as loading controls.

KAP^2D cells [3] = assay: SA-β-Gal senescence staining and senescence markers in CRC cells and organoids; format: cell-based, mouse; settings: 5 days
Protocol: SA-β-Gal staining was carried out on sections of snap-frozen tumor tissues. The samples were fixed with 0.5% glutaraldehyde solution (in PBS pH 7.4) for 15 min at room temperature and then washed once with PBS and twice with 1 mM MgCl2 in PBS pH 5.5 (5 min each, at room temperature). Subsequently, the samples were incubated with X-Gal solution (2.45 mM X-Gal, 5 mM K3Fe(CN)6, 5 mM K4Fe(CN)6 and 1 mM MgCl2 in PBS pH 5.5) at 37 °C overnight protected from light. Upon staining, the samples were washed three times with PBS (5 min each), fixed with 4% formalin in PBS for 30 min and again washed with PBS (5 min each, at room temperature).
Immunofluorescence staining on cells and organoids was performed on glass coverslips or tissue culture chambers (Sarstedt). Organoids were plated in medium containing 10% Matrigel or Cultrex BME. The cultures were fixed with 4% paraformaldehyde and stained with specific antibodies and DAPI (Vector Labs). All used antibodies and dilutions are listed in the Nature Portfolio Reporting Summary. For analyzing DNA synthesis, the Molecular Probes Click-iT EdU Alexa Fluor 555 kit was used 24 h after EdU incorporation with DAPI counterstaining. SA-β-Gal staining of cells was performed in cell culture dishes (cells) or tissue culture chambers (organoids) after fixation with 0.5% glutaraldehyde as described above. […]

[4] = system: KAP liver metastasis in Rag2^−/− mice; assay: survival of Rag2^−/− mice with KAP liver metastasis; format: in vivo, mouse
Protocol: Subcutaneous injection, splenic seeding or cecum injection of organoids was performed in 8–10-week-old C57BL/6 N/Crl, Rag2^−/− (B6.Cg-Rag2^tm1.1Cgn/J), or CB17 Scid beige (CB17.Cg-Prkdc^scidLyst^bg-J/Crl) mice, obtained from Charles River. The organoids were dissociated into single cells, washed with PBS and injected in a 1:1 mixture of PBS and Matrigel. For murine organoids, 1 × 10^5 cells were injected into the left and right flanks or the spleen capsule and 2 × 10^6 cells were injected into the cecum wall. For human organoids, 4 × 10^5 cells were injected into the flanks of CB17 Scid beige mice. For splenic seeding and cecum injection, mice were anaesthetized using ketamine (100 mg kg^−1, intraperitoneally) and xylazin (10 mg/kg, intraperitoneally) in NaCl and a small laparotomy below the thorax was performed.
No mice were excluded during treatment studies.

[5] = cell viability after 2015, Navitoclax or 2015 + Navitoclax (Fig. 5f); format: cell-based; design: concentration or dose not given beside the values; settings: replicates
[6] = Fig. 2j, 0,5 µM, replicates, 5 µM

SMILES	therapeutic effect in BAP organoids (in words) (BAP organoids)	Cell viability (%) (BAP organoids; [6])	Cell viability (%) (BAP organoids; Fig. 2j, 0,25 µM, replicates)	Cell viability (%) (BAP organoids; Fig. 2j, 1 µM, replicates)	viability at 5 µM (BAP organoids; Mus musculus, Fig. 2j, 0,5 µM, replicates) [%]	viability at 1 µM (BAP organoids; Mus musculus, Fig. 2j, 1 µM, replicates) [%]	Cell viability (%) (PDO5; 0,5 µM, 5 µM)	Cell viability (%) (PDO5; 0,25 µM, 25 µM)	Cell viability (%) (PDO5; 1 µM)	viability at 1 µM (PDO5; Homo sapiens, 1 µM) [%]	response of KAP-shMapk14.2605 organoids (in words) ([1]; doxycycline-induced Mapk14-shRNA expression)	Cell viability (%) ([1]; shMapk14.2605 + 2015)	Cell viability (%) ([1]; shNC + 2015)	MK2^T334 phosphorylation (in words) (KAP^2D cells [2])	senescence (SA-β-Gal, p16^Ink4a, HMGA2) (in words) (KAP^2D cells [3])	treatment response in Rag2^−/− mice (in words) ([4]; KAP liver metastasis)	Survival ([4]; single animals, 1 = event, Fig. 6i)	Cell viability [5]
CNC(=O)c1ccc2c(c1)C(=O)c1ccc(Nc3ccc(F)c(NC(=O)C4CC4)c3)cc1CC2 [Compound 2015]	increased responsiveness	18.53% and 25.34%	71.10% and 78.07% and 119.22%	28.06% and 32.78%	21.1	29.7	16.61% and 12.02%	73.65% and 55.49%	16.85% and 11.03%	12.7	did not respond	22.20% and 48.13% and 45.94%	31.98% and 25.43% and 20.36%	strongly reduced	clear senescence phenotype	strong treatment response	40 d of treatment and 34 d of treatment and 32 d of treatment and 39 d of treatment and 38 d of treatment and 25 d of treatment	58.51% and 44.25% and 42.17%
O=C(NCCN1CCOCC1)c1ccc2c(c1)C(=O)c1ccc(Nc3ccc(F)c(NC(=O)c4ccccc4)c3)cc1CC2 [Compound 1639]	no therapeutic effects	89.71% and 139.45% and 151.95%	99.59% and 127.60% and 118.40%	87.55% and 125.47% and 95.41%			95.85% and 89.27%	102.83% and 96.93% and 77.02%	104.30% and 89.98% and 81.04%					reduced MK2^T334 phosphorylation				
